Results taken from US12605753B2, “Enhanced microbial production of biosurfactants and other products, and uses thereof” (LOCUS SOLUTIONS IPCO, LLC, priority 2015, dated 2026).

Tested on: Bacillus subtilis B1, B2, and B3 strains
Experiment: PCR with primers for unique signature sequences
Conditions: amplicon generated by the forward/reverse primer pair (LSBS n-F / n-R) specific for Bacillus subtilis B1, B2, B3 strains
Description: Table 7 below depicts thirteen (13) pairs of primers specifically designed for the Bacillus subtilis B1, B2, and B3 strains. All 13 primers generate unique PCR amplicons for identifying the Bacillus subtilis strains of the present invention. The subsequent PCR products are unique and are not found performing a search (i.e., BLAST search) in a database such as the GenBank database.

Compared with “LSBS 1-F (DNA GGACACAGATCATTGGGAGTT; listed as DNA, chemistry not given here)”, “LSBS 2-F (DNA TCAATTCCTCTGCACCACTTAT; listed as DNA, chemistry not given here)” is higher in “PCR Product Size (bp)” value: 769 bp for the first, 906 bp for the second.

Compared with “LSBS 3-F (DNA CGGAGTTTGTTAGCGAAGTTATTG; listed as DNA, chemistry not given here)”, “LSBS 4-F (DNA CATGCGGAACTCCAATTTCTTC; listed as DNA, chemistry not given here)” is lower in “PCR Product Size (bp)” value: 543 bp for the first, 263 bp for the second.

Compared with “LSBS 5-F (DNA CCATTAGGGTCAACATGGTCTAA; listed as DNA, chemistry not given here)”, “LSBS 6-F (DNA CACCGAACTCTGCTGAGAAA; listed as DNA, chemistry not given here)” is higher in “PCR Product Size (bp)” value: 273 bp for the first, 523 bp for the second.

Compared with “LSBS 7-F (DNA CCTCTGCCCAAGACATATCAA; listed as DNA, chemistry not given here)”, “LSBS 8-F (DNA GCTGTAGACGACTGGGTACTA; listed as DNA, chemistry not given here)” is lower in “PCR Product Size (bp)” value: 913 bp for the first, 750 bp for the second.

Going from “LSBS 9-F (DNA GCCATCAGGCTGTTTGTAGA; listed as DNA, chemistry not given here)” to “LSBS 10-F (DNA CAGATGAAGTTGGTGGTGTTTC; listed as DNA, chemistry not given here)”, the “PCR Product Size (bp)” value rises from 679 bp to 743 bp.

First: LSBS 11-F (DNA ATGCGGCTAGACATGGATATG; listed as DNA, chemistry not given here)
Second: LSBS 12-F (DNA TGTCCCTCTTTAGGTGCTATTG; listed as DNA, chemistry not given here)
The “PCR Product Size (bp)” value of the first is lower: 687 bp for the first, 954 bp for the second.

“LSBS 13-F (DNA CCCTCTAGCTCTTTCTTCTTCAC; listed as DNA, chemistry not given here)” was tested, and the “PCR Product Size (bp)” value was 496 bp.
